Assay results as given in patent publication US20140315975A1, “APOPTOSIS-INDUCING AGENT” (NITTO DENKO CORPORATION, priority 2011, published 2014).

Columns and labels:
Format in all cases: cell-based
GST-π = assay: Western blot analysis of GST-π knockdown; conditions: M7609 cells
Method: On the day before transfection, M7609 cells were plated on a 100 mm plastic tissue culture dish using 10% FBS-containing RPMI-1640 medium containing no antibiotic so as to give 1×10^6 cells/10 mL. 600 pmol of GST-π siRNA (SEQ ID No: 1: […], siRNA ID#2385, Ambion) was added to 1 mL of Opti-MEM I Reduced Serum Medium (GIBCO) and mixed gently. Subsequently, 35 μL of Lipofectamine RNAiMAX (Invitrogen) was diluted in 1 mL of Opti-MEM I Reduced Serum Medium and mixed gently. The diluted GST-π siRNA and the diluted Lipofectamine RNAiMAX were combined and gently mixed, and then incubated at room temperature for 10 min. During this time, the medium was replaced with 10 mL of Opti-MEM I Reduced Serum Medium. After the 10 min. incubation, the complex between GST-π siRNA and Lipofectamine RNAiMAX was added to the cells and incubated at 37° C. under an atmosphere containing 5% CO2. After 5 hours incubation, it was replaced with 10 mL of 10% FBS-containing RPMI-1640 medium containing no antibiotic. […] On the 1st, 2nd, 3rd, and 4th days after transfection with GST-π siRNA, the number of cells was counted, and knockdown of GST-π was examined. Knockdown of GST-π was analyzed by a western blot method as described below.
Western blot analysis of GST-π knockdown was carried out using cells harvested at above-mentioned each point of time after transfection with GST-π siRNA. […] The cell extract thus obtained was subjected to quantitative protein analysis using a Micro BCA Protein Assay Kit (Thermo SCIENTIFIC) (GST-π siRNA transfectant: 4.35 μg/μL, Scramble siRNA transfectant: 4.56 μg/μL). […] A reaction with a chemiluminescent substrate was then carried out at room temperature for 1 min., and then this chemiluminescence was detected using an X-ray film. Washing between operations was carried out three times by shaking for 5 min using PBS-T. Furthermore, after transfection with siRNA, plating on a 60 mm plastic tissue culture dish was carried out to give 1.0×10^5 cells/5 mL, and the total cell count in the dish was measured using a hemocytometer up to the 4th day.

LC3 = assay: Autophagy induction by LC3 western blotting; conditions: M7609 cells, western blot with anti-LC3 antibody (FIG. 8)
Method: Induction of autophagy in GST-π knockdown cells was further analyzed by a western blot analysis of LC3. GST-π knockdown cells obtained by the procedure of Example 1 (2) were plated on a cover slip placed in a 35 mm plastic tissue culture dish so as to give 1×10^5 cells/2 mL. After incubating for a predetermined time, a cell extract was collected and subjected to a western blot analysis. A reaction with a transfer membrane was carried out at 4° C. for 16 hours using anti-LC3B antibody (SIGMA) as a primary antibody. Detection of LC3 molecules was carried out using a chemoluminescent reagent after a reaction with HRP-labeled secondary antibody. Whether or not autophagy was induced was evaluated by a shift of LC3 from type I (18 kDa) to type II (16 kDa).

M7609 cells = assay: Apoptosis induction by TUNEL staining
Method: A TUNEL method was carried out as follows using an In Situ Cell Death Detection Kit, POD (Roche). GST-π knockdown cells obtained by the procedure of Example 1 (2) were plated on a cover slip placed in a 35 mm plastic tissue culture dish so as to give 1×10^5 cells/2 mL. After the medium was aspirated, 4% paraformaldehyde in PBS was added, and incubation was carried out at room temperature for 60 min., thus fixing the cells. In order to carry out blocking of endogenous peroxidase, incubation was carried out with 3% H2O2 in methanol at room temperature for 10 min. Subsequently, permeabilization of cells was carried out by treating with 0.1% Triton X-100 in 0.1% sodium citrate on ice for 2 min. The TUNEL reaction was carried out in a humidity chamber at 37° C. for 60 min. Detection of TUNEL-positive cells was carried out by a coloration reaction using a DAB substrate after reacting a peroxidase labeled anti-fluorescein antibody at 37° C. for 30 min. Counter staining was carried out using hematoxylin, stained cells were examined under an optical microscope, and TUNEL-positive cells were evaluated as apoptotic cells. Washing between the operations was carried out by rinsing with PBS.

[1] = tested on: EGFR/PI3K/Akt/mTOR signal cascade; assay: Western blot of EGFR/PI3K/Akt/mTOR signal; conditions: M7609 cells, compared with Scramble siRNA (FIG. 11)
Method: Expression of each protein constituting the EGFR/PI3K/Akt/mTOR signal cascade was analyzed in the same way as for Example 1 (1), (2), and (4) except that, as primary antibodies, anti-p-EGFR (Tyr1068) antibody (Cell Signaling), anti-EGFR antibody (Santa Cruz), anti-p-PI3K p85 (Tyr458)/p55 (Tyr199) antibody (Cell Signaling), anti-PI3K, p85 antibody (MILLIPORE), anti-p-Akt (Ser473) antibody (Cell Signaling), anti-Akt antibody (Cell Signaling), anti-p-p70S6K (Thr389) antibody (Cell Signaling), anti-p-p70S6K (Thr421/Ser424) antibody (Cell Signaling), and anti-p70S6K antibody (Cell Signaling) were used.

GST-π siRNA: GST-π siRNA (SEQ ID No: 1: GGGAGGCAAGACCUUCAUUTT, siRNA ID#2385, Ambion) (chemistry not given here)
expression of GST-π (GST-π; 4 days after transfection (FIG. 1b)): still stably suppressed | expression of GST-π (GST-π; siRNA transfection, western blot (FIG. 1a)): suppressed | expression of type II LC3 (LC3): markedly increased | proportion of apoptosis-positive cells (TUNEL-positive per 1000 cells) (M7609 cells; 1 to 4 days after transfection (FIG. 10)): gradually but continuously increased up to 4th day | TUNEL-positive cells (apoptosis) (M7609 cells; 3rd to 5th day after transfection, stained images (FIG. 9)): TUNEL-positive cells, that is, apoptosis, was observed | phosphorylation of each protein constituting the EGFR/PI3K/Akt/mTOR signal cascade [1]: reduced
